Legend:
Sprague-Dawley rats = experiment: Rat Chung model (L5 spinal nerve ligation), paw withdrawal threshold with von Frey hairs; type: in vivo
Method: Adult male Sprague-Dawley rats, weighing 200-230 g at the time of surgery, were used. They were housed in groups of 4 in an air-conditioned room on a 12 h light/dark cycle. Food and water were available ad libitu. The animals were allowed to acclimatize to the experimental environment for three days by leaving them on a lifted metal mesh for at least 40 min. The baseline paw withdrawal threshold (PWT) was examined using a series of graduated von Frey hairs for 3 consecutive days before surgery and re-assessed on the 7th day after surgery and on the 11th to 14th day before drug dosing. The rat Chung model was prepared as described by Kim and Chung (1992). The rat was anaesthetized with 5% isoflurane mixed with oxygen (2 L per min) followed by an i.p. injection of sodium pentobarbitone at 50 mg/kg. The back was shaved and sterilized with 75% ethanol. The animal was placed in a prone position and a para-medial incision was made on the skin covering L4-6 level. The L5 spinal nerve was carefully isolated and tightly ligated with 6/0 silk suture. The wound was then closed in layers after a complete hemostasis. A single dose of antibiotics (Amoxipen 15 mg/rat, ip) was routinely given for prevention of infection after surgery. The animals were placed in a temperature controlled recovery chamber until fully awake before being returned to the home cage. The animals were placed in individual Perspex boxes on a raised metal mesh for at least 40 min before the test. Starting with the filament of lowest force, each filament was applied perpendicularly to the center of the ventral surface of the paw until slightly bent for 6 seconds. If the animal withdrew or lifted the paw upon stimulation, then a hair with force immediately lower than that tested was used. If no response was observed, then a hair with force immediately higher was tested. The lowest amount of force required to induce reliable responses (positive in 3 out of 5 trials) was recorded as the value of PWT. Only those animals with significant allodynia (PWT≦3.5 g) were selected for drug dosing experiments. The rats in a neuropathic pain state were randomly divided into experimental groups: Vehicle group and 1 group had 8 rats and the gabapentin group had 9 rats. The drug test was carried out 12 to 14 days after surgery. Isotonic 50 mM phosphate buffer (PB), dosed orally at 3 mL/kg, served as the vehicle control. Gabapentin was dissolved in normal saline and given orally at 100 mg/kg. […] The PWT was assessed at 1, 3, 6 and 24 h following drug or vehicle administration. The animals were returned to their home cage for a break (about 30 min) between two neighboring testing time points. One-way analysis of variance (ANOVA) (SPSS software) was used for statistical analysis to compare different groups on the same time points. Paired Student -t test was used to compare different time points in the same group. The significance level was set at P<0.05.

Human DAAO = Human DAAO (Homo sapiens, UniProt P14920); experiment: D-Amino Acid Oxidase enzyme assay (D-serine, horseradish peroxidase/Amplex Red coupled); type: biochemical; conditions: D-serine 5 mM, pH 7.4; read-out: Human DAAO Inhibition [IC50]
Chain of Human DAAO (P14920 whole entry): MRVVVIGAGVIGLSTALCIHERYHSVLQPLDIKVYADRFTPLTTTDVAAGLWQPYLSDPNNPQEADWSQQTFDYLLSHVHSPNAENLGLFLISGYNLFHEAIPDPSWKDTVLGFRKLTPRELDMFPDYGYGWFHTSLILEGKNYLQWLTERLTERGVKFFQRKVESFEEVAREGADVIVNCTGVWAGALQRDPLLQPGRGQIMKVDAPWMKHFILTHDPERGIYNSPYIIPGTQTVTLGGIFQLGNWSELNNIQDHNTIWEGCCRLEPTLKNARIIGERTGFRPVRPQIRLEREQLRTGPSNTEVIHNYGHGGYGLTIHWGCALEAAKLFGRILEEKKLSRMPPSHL
Method: This coupled reaction uses the enzyme substrate Amplex Red (Molecular Probes), which is converted to the fluorescent reaction product, resorufin (excitation 530-560 nm; emission ˜590 nm). Although DAAO has a higher pH optimum, all reagents were prepared in 50 mM sodium phosphate buffer at pH 7.4 and inhibition curves were generated at this pH.
The reactions were initiated by addition of DAAO enzyme while the fluorescence was monitored. […] Inhibition curves were generated in the presence of varying concentrations of the inhibitor and IC50 values were calculated for each inhibitor.

Structure (SMILES)	IC50 (Human DAAO) [µM]	further results
O=C(O)c1cc2occc2[nH]1 [Compound 11, 4H-Furo[3,2-b]pyrrole-5-carboxylic acid]		Effect on paw withdrawal threshold (PWT) (Sprague-Dawley rats; oral dose of 10 mg/kg): significantly elevated the PWT
O=C(O)c1cc2occ(CCc3ccccc3)c2[nH]1 [Compound 17, 3-phenethyl-4H-furo[3,2-b]pyrrole-5-carboxylic acid]	< 1	
O=C(O)c1cc2oc(Cc3ccccc3)cc2[nH]1 [Compound 24, 2-benzyl-4H-furo[3,2-b]pyrrole-5-carboxylic acid]	< 100	
O=C(O)c1cc2occ(Cc3ccccc3)c2[nH]1 [Compound 26, 3-benzyl-4H-furo[3,2-b]pyrrole-5-carboxylic acid]	< 100	
C=Cc1coc2cc(C(=O)O)[nH]c12 [Compound 32, 3-vinyl-4H-furo[3,2-b]pyrrole-5-carboxylic acid]	< 0.1	
C/C=C\c1coc2cc(C(=O)O)[nH]c12 [Compound 46, (Z)-3-(prop-1-enyl)-4H-furo[3,2-b]pyrrole-5-carboxylic acid]	< 100	
O=C(O)c1cc2occ(/C=C/c3ccccc3)c2[nH]1 [Compound 48, (E)-3-Styryl-4H-furo[3,2-b]pyrrole-5-carboxylic acid]	< 100	
NCC1(CC(=O)O)CCCCC1 [Gabapentin]		Course of the effect on PWT after the peak (Sprague-Dawley rats; orally dosed at 100 mg/kg): gradually declined from 6 hours onwards; Time at which the effect on PWT commenced after dosing (Sprague-Dawley rats; orally dosed at 100 mg/kg): first hour; Time of peak effect on PWT after dosing (Sprague-Dawley rats; orally dosed at 100 mg/kg): 3 h; Effect on paw withdrawal threshold (PWT) (Sprague-Dawley rats; orally dosed at 100 mg/kg, positive control): significantly increased the PWT

— patent US7579370B2, “Fused heterocycles” (Sepracor Inc., priority 2006, dated 2009)
